Laboratory results taken from US20240196893A1, “LOW TOXICITY COMPOUNDS FOR USE AS INSECTICIDES AND METHOD OF PRODUCING SAID COMPOUNDS” (UNIVERSIDADE DO PORTO, priority 2021, published 2024).

Columns and labels:
[1] = test system: human keratinocytes; assay: Viability of human keratinocytes (resazurin); format: cell-based; conditions: 50 μg/mL, 24 hours
Description: Results represent the mean±SEM of at least three independent experiments, each of them performed in triplicate: **<0.01, ***p<0.001.
The compound (6a) of the present application has no toxicity in human cells, contrarily to the ginkgolic acid (1), or the synthetic commercial insecticide evaluated as benchmark (chlorpyrifos) (FIG. 3), as assessed by cultivating human keratinocytes in the same cell density, exposing them to either compound (6a) or chlorpyrifos at the same concentration (50 μg/mL) and assessing cell viability after 24 hours using resazurin.

[2] = test system: insect effector caspase DRICE; assay: Caspase-like activity in insect cells (DEVD-aminoluciferin substrate); format: cell-based; conditions: 50 μg/mL
Description: The compound (6a) of the present application presents a mechanism of action distinct of the commercial insecticide chlorpyrifos, which may be of interest as a strategy to overcome pesticide resistances. Specifically, the compound (6a) is capable of activating insect effector caspase DRICE (involved in the process of cell death), while the commercial insecticide is unable to trigger this effect and has no impact in this target (FIG. 4). This was evaluated by incubating cells with the same cellular density with the proluminescent substrate DEVD-aminoluciferin, which becomes […] after cleavage by effector caspases, being detected subsequently in a luminescence detector.

[3] = test system: Sf9 cells; conditions: Sf9 insect cells, 100 μg/mL, prior studies; cited from earlier work
[4] = test system: Sf9 cells; assay: Viability of Sf9 insect cells (resazurin); format: cell-based, Spodoptera frugiperda
Description: Results represent the mean+SEM of at least three independent experiments, each of them performed in triplicate: *p<0.05, **p<0.01, ***p<0.001.

SMILES | loss of cell viability [1] | caspase-like activity, increase over basal level [2] | loss of viability [3] | activity in Sf9 insect cells (compared with compound 1) ([4]; Sf9 insect cells) | loss of cell viability relative to chlorpyrifos ([4]; Spodoptera frugiperda cells, 100 μg/mL, 24 hours, resazurin)
CCOP(=S)(OCC)Oc1nc(Cl)c(Cl)cc1Cl [chlorpyrifos, O,O-diethyl O-(3,5,6-trichloropyridin-2-yl) phosphorothioate] | ca. 20% | no statistically significant changes |  |  | 
CCCCCCC=CCCCCCCCCCc1cccc(O)c1C(=O)O [compound 1, 2-(heptadec-10-en-1-yl)-6-hydroxybenzoic acid] |  | no increase | ca. 75% |  | 
CCCCCCC=CCCCCCCCCCc1cccc(OC)c1C(=O)O [compound 2, 2-(heptadec-10-en-1-yl)-6-methoxybenzoic acid] |  |  |  | lower activity | 
CCCCCCCCCCCCNc1ccccc1C(=O)O [compound 6a, 2-(dodecylamino) benzoic acid] |  | 400% |  |  | more than the triple
